Experimental data: patent publication US20210260010A1, “COMPOSITIONS AND METHODS FOR THE REDUCTION OR TREATMENT OF INFLAMMATION” (AXCELLA HEALTH INC., priority 2018, published 2021)

Tests used:
CCL18 = assay: IL-4 induced CCL18 secretion in primary human monocyte-derived macrophages (ELISA); format: cell-based; details: for Donor 1 CCL18 Measurements Mean / Donor 2 CCL18 Measurements Mean: relative to vehicle control; for CCL18 Measurements: Mean (fold change relative to vehicle control): IL-4 induced; for IL-4 induced CCL18 secretion (fold change relative to vehicle control): macrophages
Protocol: Lymphocytes were purified from unpurified buffy coats (Research Blood Components) using Lymphocyte Separation Medium (Corning). After centrifugation, the PBMC layer was extracted and rinsed several times using Dulbecco's phosphate-buffered saline (DPBS; Gibco). After straining PBMCs through a 70 uM cell strainer, cells were resuspended and counted using a Cellometer K2 automated cell counter.
CD14+ cells were selected using EasySep™ Human CD14 Positive Selection Kit II ([…] Technologies) according to manufacturer-supplied protocols. Following isolation CD14+ cells were seeded into 10 cm tissue culture plates and differentiated into macrophages using M-CSF (Peprotech).
On day 0, primary human PBMC derived macrophages were seeded in Dulbecco's Modified Eagle Medium (DMEM) (Gibco) supplemented with penicillin-streptomycin (Hyclone) and 10% heat inactivated fetal bovine serum (HI-FBS) (Atlanta Bio) into 96-well microplates (ThermoFisher) and incubated overnight at 37° C., 5% CO2. On day 1, cells were washed once with DPBS and then treated with: • a. Amino acid free DMEM (US Biologicals) containing a defined custom amino acid concentration based on the mean physiological concentrations in blood based on values published in the Human Metabolome Database (HMDB), with 6 mM glucose, 1 mM sodium pyruvate, 10 mM HEPES, penicillin-streptomycin; or • b. The same medium described above with one amino acid or amino acid combination at various concentrations
On day 2, cells were treated with the same mediums described above supplemented with recombinant human interleukin-4 (IL-4; Peprotech). Control wells were treated with tofacitinib (Tocris) and IL-4, PBS with IL-4, or phosphate buffered saline (PBS) alone.
On day 3, the supernatant was collected and immediately frozen in −80° C. freezer. Cells were washed once with DPBS and viability was assessed using the WST-8 Cell Proliferation Cytotoxicity Assay (Dojindo) according to manufacturer-supplied protocol. Following the assay, cells were washed twice with PBS and fixed with 4% paraformaldehyde. Protein levels in supernatant samples were analyzed by ELISA for CCL18 using commercially available kits (R&D Systems) according to manufacturer-supplied protocols.

TNFα = assay: LPS-induced TNFα secretion in primary human monocyte-derived macrophages (ELISA); format: cell-based; set-up: TNFa Measurements Mean: unit not given here; details: for TNFa Measurements Mean: Donor 1, LPS 0.15 ng/mL; for TNFa Measurements Mean / Donor 2 TNFa Measurements Mean / Donor 3 TNFa Measurements Mean: baseline subtracted; for LPS-induced TNFα secretion: macrophages, 0.15 ng/mL LPS; for Donor 2 TNFa Measurements Mean / LPS-induced TNFα secretion: Donor 2
Protocol: Unpurified buffy coats (Research Blood Components) were carefully poured into 50 mL centrifuge tubes and diluted with room temperature Dulbecco's Phosphate Buffered Saline (dPBS) with Calcium and Magnesium (Gibco). Diluted buffy coats were further divided into four total 50 mL centrifuge tubes at 20 mL per tube. Lymphocyte Separation Medium (Corning) was carefully pipetted to the bottom of each centrifuge tube. Mixtures were centrifuged at 850× g for 32 minutes at 20° C. with 0 deceleration and acceleration.
The PBMC layer was separated from other components after centrifugation and added to new 50 mL centrifuge tube containing 25 mL dPBS. Total volume was brought up to 50 mL with dPBS and centrifuged at 600×g for 10 minutes at 20° C. with acceleration of 9, deceleration of 5. Supernatant was carefully removed from cell pellets. The cell pellets were resuspended using 10 mL dPBS. Total volume was then brought up to 50 mL using dPBS and centrifuged at 450×g for 5 min at 20° C. with acceleration of 9, deceleration of 9. The supernatant removal and cell pellet resuspension was repeated again.
The supernatant was then carefully removed from cell pellets. Cell pellets were resuspended in 10 mL dPBS without calcium or magnesium and filtered through a 70 uM cell strainer. The total PBMC number was determined using a Cellometer K2 automated cell counter. A total of 5E6 cells were saved for flow cytometric analysis. Remaining cells were centrifuged at 490×g for 5 minutes at 20° C. with acceleration of 9, deceleration of 9.
CD14+ cells were selected using EasySep™ Human CD14 Positive Selection Kit II ([…] Technologies). Cells were resuspended in cold EasySep™ Buffer ([…] Technologies) at 1×10^8 cells/mL. A total of 100 uL/mL EasySep™ Human CD14 Positive Selection Cocktail II was added to the cell suspension, mixed, and incubated at room temperature for 10 minutes. A total of 100 uL/mL RapidSpheres were added to the mixture and incubated at room temperature for 3 minutes after mixing, then RoboSep buffer was added to bring up the total volume to 10 mL. The mixture in a 15 mL tube was placed in magnet and incubated at room temperature for 3 minutes. Supernatant was discarded and 10 mL fresh EasySep™ buffer was added to 15 mL tube. The addition of RoboSep buffer, mixing, and discarding of supernatant was repeated two more times.
Negative and positive fractions were centrifuged at 490×g for 5 minutes at 20° C. with acceleration of 9, deceleration of 9, and resuspended in DMEM (Gibco) and 10% Heat Inactivated Fetal Bovine Serum (Atlanta Bio) and Penicillin/Streptomycin. Cells were counted and centrifuged again at 490× g for 5 minutes at 20° C. with acceleration of 9, deceleration of 9. After centrifugation, cell were resuspended in DMEM (Gibco) and 10% Heat Inactivated Fetal Bovine Serum (Atlanta Bio) and Penicillin/Streptomycin containing 500 U/mL […] and plated at 1-2×10^6 cells/mL on 10 cm tissue culture plates. Cells were kept in 37° C., 5% CO2 in between feedings/harvest.
Cells were fed every 3-4 days by removing media and unattached cells, centrifuging at 490× g for 5 minutes at 20° C. with acceleration of 9, deceleration of 9, and resuspending in fresh DMEM (Gibco) and 10% Heat Inactivated Fetal Bovine Serum (Atlanta Bio) and Penicillin/Streptomycin containing GM-CSF. Resuspended cells were seeded back onto 10 cm tissue culture plates and incubated at 37° C., 5% CO2. Differentiated macrophages were used for subsequent experiments.
Primary human PMBC derived macrophages were seeded on day 0 at 3.0E4 cells per well in 96-well microplates (ThermoFisher) in Dulbecco's Modified Eagle Medium (DMEM) (Gibco) supplemented with penicillin-streptomycin (Hyclone) and 10% heat inactivated fetal bovine serum (HI-FBS) (Atlanta Bio) and incubated overnight at 37° C., 5% CO2. On day 1, cells were washed once with 150 uL per well DPBS (Gibco) and treated with 75 uL of: • a. […]

## CC[C@H](C)[C@H](N)C(=O)O [Isoleucine, L-Isoleucine]
CCL18; Conc. 66 μM
  Donor 1 CCL18 Measurements Mean: 1.07 fold change
CCL18; Conc. 1328 μM
  Donor 1 CCL18 Measurements Mean: 1.12 fold change
CCL18; Conc. 3320 μM
  Donor 1 CCL18 Measurements Mean: 1.181 fold change
CCL18; Conc. 6639 μM
  Donor 1 CCL18 Measurements Mean: 0.9823 fold change
CCL18; Donor 2, Conc. 66 μM
  Donor 2 CCL18 Measurements Mean: 1.204 fold change
CCL18; Donor 2, Conc. 1328 μM
  Donor 2 CCL18 Measurements Mean: 1.461 fold change
CCL18; Donor 2, Conc. 3320 μM
  Donor 2 CCL18 Measurements Mean: 1.503 fold change
CCL18; Donor 2, Conc. 6639 μM
  Donor 2 CCL18 Measurements Mean: 1.685 fold change
CCL18; Donor 3, Conc. 66 μM
  CCL18 Measurements: Mean (fold change relative to vehicle control): 1.056 fold change
CCL18; Donor 3, Conc. 1328 μM
  CCL18 Measurements: Mean (fold change relative to vehicle control): 1.026 fold change
CCL18; Donor 3, Conc. 3320 μM
  CCL18 Measurements: Mean (fold change relative to vehicle control): 1.431 fold change
CCL18; Donor 3, Conc. 6639 μM
  CCL18 Measurements: Mean (fold change relative to vehicle control): 1.111 fold change
CCL18; Donor 2
  IL-4 induced CCL18 secretion (fold change relative to vehicle control): significantly increased
TNFα; Conc. 66 μM (baseline)
  TNFa Measurements Mean: 0
  Donor 2 TNFa Measurements Mean: 4.74E−15
  Donor 3 TNFa Measurements Mean: −2.4E−15
TNFα; Conc. 1328 μM
  TNFa Measurements Mean: −42.68
  Donor 2 TNFa Measurements Mean: 2.919
  Donor 3 TNFa Measurements Mean: −6.23
TNFα; Conc. 3320 μM
  TNFa Measurements Mean: −96.3
  Donor 2 TNFa Measurements Mean: 10.26
  Donor 3 TNFa Measurements Mean: 3.309
TNFα; Conc. 6639 μM
  TNFa Measurements Mean: −40.95
  Donor 2 TNFa Measurements Mean: 19.26
  Donor 3 TNFa Measurements Mean: −1.66
TNFα
  LPS-induced TNFα secretion: increased

## CC(C)C[C@H](N)C(=O)O [Leucine, L-Leucine]
CCL18; Conc. 153 μM
  Donor 1 CCL18 Measurements Mean: 1.124 fold change
CCL18; Conc. 3054 μM
  Donor 1 CCL18 Measurements Mean: 1.302 fold change
CCL18; Conc. 7635 μM
  Donor 1 CCL18 Measurements Mean: 1.247 fold change
CCL18; Conc. 15270 μM
  Donor 1 CCL18 Measurements Mean: 1.227 fold change
CCL18; Donor 2, Conc. 153 μM
  Donor 2 CCL18 Measurements Mean: 1.488 fold change
CCL18; Donor 2, Conc. 3054 μM
  Donor 2 CCL18 Measurements Mean: 1.646 fold change
CCL18; Donor 2, Conc. 7635 μM
  Donor 2 CCL18 Measurements Mean: 1.825 fold change
CCL18; Donor 2, Conc. 15270 μM
  Donor 2 CCL18 Measurements Mean: 1.712 fold change
CCL18; Donor 3, Conc. 153 μM
  CCL18 Measurements: Mean (fold change relative to vehicle control): 1.242 fold change
CCL18; Donor 3, Conc. 3054 μM
  CCL18 Measurements: Mean (fold change relative to vehicle control): 1.502 fold change
CCL18; Donor 3, Conc. 7635 μM
  CCL18 Measurements: Mean (fold change relative to vehicle control): 1.558 fold change
CCL18; Donor 3, Conc. 15270 μM
  CCL18 Measurements: Mean (fold change relative to vehicle control): 1.193 fold change
CCL18; Donor 2
  IL-4 induced CCL18 secretion (fold change relative to vehicle control): significantly increased
CCL18; Donor 3
  IL-4 induced CCL18 secretion (fold change relative to vehicle control): significantly increased
TNFα; Conc. 153 μM (baseline)
  TNFa Measurements Mean: 0
  Donor 2 TNFa Measurements Mean: 0
TNFα; Conc. 3054 μM
  TNFa Measurements Mean: 42.04
  Donor 2 TNFa Measurements Mean: 31.74
TNFα; Conc. 7635 μM
  TNFa Measurements Mean: −23.04
  Donor 2 TNFa Measurements Mean: 41.98
TNFα; Conc. 15270 μM
  TNFa Measurements Mean: −46.21
  Donor 2 TNFa Measurements Mean: 46.69
TNFα
  LPS-induced TNFα secretion: increased
